Results published in ChEMBL document CHEMBL3885861, “Open TG-GATES”.

Organism: Rattus norvegicus
Assay: Open TG-GATES - Regimen: Single
Format: toxicity, organism-based, Sprague-Dawley
Design: regimen Single, gender Male, age 6 weeks
Details: in vivo, po, route gavage; for TG / TP / gamma-GTP / ALT / AST / CRE / Ca / Cl / DBIL / GLC / K / LDH / Na / PL / RALB / TBIL / TC / ALP: tissue Plasma; for APTT / Bas / Eos / Fbg / Hb / Ht / Lym / MCHC / MCV / Mono / PT / Plat / RBC / WBC: tissue Blood; for KIDNEY_L / KIDNEY_R / KIDNEY_TOTAL: tissue Kidney; for LIVER: tissue Liver
[1] = 0 mg/kg, 24 h, dose level Control

`COc1ccc([C@@H]2Sc3ccccc3N(CCN(C)C)C(=O)[C@@H]2OC(C)=O)cc1` [DILTIAZEM] was tested, and the TG [1] was 84.2 mg/dL, the TP [1] was 5.4 g/dL and the gamma-GTP [1] was 1 IU/L. For the same compound, the TERMINAL_BW (80 mg/kg, 3 h, dose level Low) was 186.4 g, the APTT (80 mg/kg, 3 h, dose level Low) was 17.7 s and the Bas (80 mg/kg, 3 h, dose level Low) was 0.4%. The Eos (80 mg/kg, 3 h, dose level Low) was 0.2%, the Fbg (80 mg/kg, 3 h, dose level Low) was 282.2 mg/dL and the Hb (80 mg/kg, 3 h, dose level Low) was 12.8 g/dL. For the same compound, the Ht (80 mg/kg, 3 h, dose level Low) was 40%, the Lym (80 mg/kg, 3 h, dose level Low) was 70.8% and the MCHC (80 mg/kg, 3 h, dose level Low) was 32.1%. For the same compound, the MCV (80 mg/kg, 3 h, dose level Low) was 66.5 fL, the Mono (80 mg/kg, 3 h, dose level Low) was 3.4% and the PT (80 mg/kg, 3 h, dose level Low) was 14.7 s. The Plat (80 mg/kg, 3 h, dose level Low) was 124.6 x10_4/uL, the RBC (80 mg/kg, 3 h, dose level Low) was 601.8 x10_4/ul and the WBC (80 mg/kg, 3 h, dose level Low) was 115.4 x10_2/uL. It also gave a KIDNEY_L (80 mg/kg, 3 h, dose level Low) of 0.9 g, a KIDNEY_R (80 mg/kg, 3 h, dose level Low) of 0.8 g and a KIDNEY_TOTAL (80 mg/kg, 3 h, dose level Low) of 1.7 g. It also gave an LIVER (80 mg/kg, 3 h, dose level Low) of 8.4 g, an ALT (80 mg/kg, 3 h, dose level Low) of 50.8 IU/L and an AST (80 mg/kg, 3 h, dose level Low) of 85.6 IU/L. For the same compound, the CRE (80 mg/kg, 3 h, dose level Low) was 0.2 mg/dL, the Ca (80 mg/kg, 3 h, dose level Low) was 10.8 mg/dL and the Cl (80 mg/kg, 3 h, dose level Low) was 106.6 meq/L. It also gave a DBIL (80 mg/kg, 3 h, dose level Low) of 0.014 mg/dL, a GLC (80 mg/kg, 3 h, dose level Low) of 183.4 mg/dL and a K (80 mg/kg, 3 h, dose level Low) of 4.5 meq/L. It also gave an LDH (80 mg/kg, 3 h, dose level Low) of 74.8 IU/L, a Na (80 mg/kg, 3 h, dose level Low) of 142.2 meq/L and a PL (80 mg/kg, 3 h, dose level Low) of 134.8 mg/dL. For the same compound, the RALB (80 mg/kg, 3 h, dose level Low) was 2.5 g/dL, the TBIL (80 mg/kg, 3 h, dose level Low) was 0.032 mg/dL and the TC (80 mg/kg, 3 h, dose level Low) was 71.8 mg/dL. It also gave a TG (80 mg/kg, 3 h, dose level Low) of 60.2 mg/dL, a TP (80 mg/kg, 3 h, dose level Low) of 5.1 g/dL and a gamma-GTP (80 mg/kg, 3 h, dose level Low) of 1.2 IU/L. For the same compound, the TERMINAL_BW (80 mg/kg, 6 h, dose level Low) was 182.6 g, the APTT (80 mg/kg, 6 h, dose level Low) was 17 s and the Bas (80 mg/kg, 6 h, dose level Low) was 0%. The Eos (80 mg/kg, 6 h, dose level Low) was 0.8%, the Fbg (80 mg/kg, 6 h, dose level Low) was 314.8 mg/dL and the Ht (80 mg/kg, 6 h, dose level Low) was 40.5%. For the same compound, the Lym (80 mg/kg, 6 h, dose level Low) was 71.2%, the MCHC (80 mg/kg, 6 h, dose level Low) was 32.4% and the MCV (80 mg/kg, 6 h, dose level Low) was 67 fL. For the same compound, the Mono (80 mg/kg, 6 h, dose level Low) was 4.2%, the PT (80 mg/kg, 6 h, dose level Low) was 14.7 s and the Plat (80 mg/kg, 6 h, dose level Low) was 131.5 x10_4/uL. The RBC (80 mg/kg, 6 h, dose level Low) was 606 x10_4/ul, the WBC (80 mg/kg, 6 h, dose level Low) was 91.6 x10_2/uL and the KIDNEY_L (80 mg/kg, 6 h, dose level Low) was 0.8 g. It also gave a KIDNEY_R (80 mg/kg, 6 h, dose level Low) of 0.8 g, a KIDNEY_TOTAL (80 mg/kg, 6 h, dose level Low) of 1.6 g and an LIVER (80 mg/kg, 6 h, dose level Low) of 7.9 g. It also gave an ALT (80 mg/kg, 6 h, dose level Low) of 42.4 IU/L, an AST (80 mg/kg, 6 h, dose level Low) of 72.8 IU/L and a CRE (80 mg/kg, 6 h, dose level Low) of 0.2 mg/dL. The Ca (80 mg/kg, 6 h, dose level Low) was 11.1 mg/dL, the Cl (80 mg/kg, 6 h, dose level Low) was 106.8 meq/L and the DBIL (80 mg/kg, 6 h, dose level Low) was 0.014 mg/dL. For the same compound, the GLC (80 mg/kg, 6 h, dose level Low) was 176.8 mg/dL, the K (80 mg/kg, 6 h, dose level Low) was 4.1 meq/L and the LDH (80 mg/kg, 6 h, dose level Low) was 54 IU/L. For the same compound, the Na (80 mg/kg, 6 h, dose level Low) was 143.8 meq/L, the PL (80 mg/kg, 6 h, dose level Low) was 137.4 mg/dL and the RALB (80 mg/kg, 6 h, dose level Low) was 2.5 g/dL. It also gave a TBIL (80 mg/kg, 6 h, dose level Low) of 0.034 mg/dL, a TC (80 mg/kg, 6 h, dose level Low) of 79 mg/dL and a TG (80 mg/kg, 6 h, dose level Low) of 33.4 mg/dL. The TP (80 mg/kg, 6 h, dose level Low) was 5.3 g/dL, the gamma-GTP (80 mg/kg, 6 h, dose level Low) was 1 IU/L and the TERMINAL_BW (80 mg/kg, 9 h, dose level Low) was 181.8 g. For the same compound, the Bas (80 mg/kg, 9 h, dose level Low) was 0%, the Eos (80 mg/kg, 9 h, dose level Low) was 0.8% and the Fbg (80 mg/kg, 9 h, dose level Low) was 300.8 mg/dL. The Hb (80 mg/kg, 9 h, dose level Low) was 12.9 g/dL, the Ht (80 mg/kg, 9 h, dose level Low) was 40.2% and the Lym (80 mg/kg, 9 h, dose level Low) was 79.4%. For the same compound, the MCHC (80 mg/kg, 9 h, dose level Low) was 32.1%, the MCV (80 mg/kg, 9 h, dose level Low) was 66.7 fL and the Mono (80 mg/kg, 9 h, dose level Low) was 3%. It also gave a PT (80 mg/kg, 9 h, dose level Low) of 15.2 s, a Plat (80 mg/kg, 9 h, dose level Low) of 116.7 x10_4/uL and an RBC (80 mg/kg, 9 h, dose level Low) of 603.2 x10_4/ul. It also gave a WBC (80 mg/kg, 9 h, dose level Low) of 69.7 x10_2/uL, a KIDNEY_L (80 mg/kg, 9 h, dose level Low) of 0.9 g and a KIDNEY_R (80 mg/kg, 9 h, dose level Low) of 0.9 g. It also gave a KIDNEY_TOTAL (80 mg/kg, 9 h, dose level Low) of 1.7 g, an LIVER (80 mg/kg, 9 h, dose level Low) of 7.3 g and an ALP (80 mg/kg, 9 h, dose level Low) of 1382 IU/L. For the same compound, the ALT (80 mg/kg, 9 h, dose level Low) was 44 IU/L, the AST (80 mg/kg, 9 h, dose level Low) was 74.8 IU/L and the CRE (80 mg/kg, 9 h, dose level Low) was 0.1 mg/dL. For the same compound, the Ca (80 mg/kg, 9 h, dose level Low) was 10.7 mg/dL, the Cl (80 mg/kg, 9 h, dose level Low) was 105.8 meq/L and the DBIL (80 mg/kg, 9 h, dose level Low) was 0.016 mg/dL. The GLC (80 mg/kg, 9 h, dose level Low) was 176.8 mg/dL, the K (80 mg/kg, 9 h, dose level Low) was 4.1 meq/L and the LDH (80 mg/kg, 9 h, dose level Low) was 59.6 IU/L. For the same compound, the Na (80 mg/kg, 9 h, dose level Low) was 142 meq/L, the PL (80 mg/kg, 9 h, dose level Low) was 129.4 mg/dL and the RALB (80 mg/kg, 9 h, dose level Low) was 2.5 g/dL. The TBIL (80 mg/kg, 9 h, dose level Low) was 0.032 mg/dL, the TC (80 mg/kg, 9 h, dose level Low) was 69 mg/dL and the TG (80 mg/kg, 9 h, dose level Low) was 55.8 mg/dL. For the same compound, the TP (80 mg/kg, 9 h, dose level Low) was 5.1 g/dL, the gamma-GTP (80 mg/kg, 9 h, dose level Low) was 1 IU/L and the TERMINAL_BW (80 mg/kg, 24 h, dose level Low) was 195.1 g. It also gave a Bas (80 mg/kg, 24 h, dose level Low) of 0%, an Eos (80 mg/kg, 24 h, dose level Low) of 1% and a Fbg (80 mg/kg, 24 h, dose level Low) of 257 mg/dL. It also gave a Hb (80 mg/kg, 24 h, dose level Low) of 13.3 g/dL, a Ht (80 mg/kg, 24 h, dose level Low) of 40.6% and a Lym (80 mg/kg, 24 h, dose level Low) of 75%. For the same compound, the MCHC (80 mg/kg, 24 h, dose level Low) was 32.8%, the MCV (80 mg/kg, 24 h, dose level Low) was 67 fL and the Mono (80 mg/kg, 24 h, dose level Low) was 3.2%. It also gave a PT (80 mg/kg, 24 h, dose level Low) of 14.5 s, a Plat (80 mg/kg, 24 h, dose level Low) of 121.8 x10_4/uL and an RBC (80 mg/kg, 24 h, dose level Low) of 606 x10_4/ul. The WBC (80 mg/kg, 24 h, dose level Low) was 83.3 x10_2/uL, the KIDNEY_L (80 mg/kg, 24 h, dose level Low) was 0.9 g and the KIDNEY_R (80 mg/kg, 24 h, dose level Low) was 0.9 g. For the same compound, the KIDNEY_TOTAL (80 mg/kg, 24 h, dose level Low) was 1.7 g, the LIVER (80 mg/kg, 24 h, dose level Low) was 9.3 g and the ALP (80 mg/kg, 24 h, dose level Low) was 1732.2 IU/L. The ALT (80 mg/kg, 24 h, dose level Low) was 49 IU/L, the AST (80 mg/kg, 24 h, dose level Low) was 77.4 IU/L and the CRE (80 mg/kg, 24 h, dose level Low) was 0.2 mg/dL. It also gave a Ca (80 mg/kg, 24 h, dose level Low) of 11.2 mg/dL, a Cl (80 mg/kg, 24 h, dose level Low) of 106.8 meq/L and a DBIL (80 mg/kg, 24 h, dose level Low) of 0.016 mg/dL. It also gave a GLC (80 mg/kg, 24 h, dose level Low) of 187.4 mg/dL, a K (80 mg/kg, 24 h, dose level Low) of 4.3 meq/L and an LDH (80 mg/kg, 24 h, dose level Low) of 82 IU/L. It also gave a Na (80 mg/kg, 24 h, dose level Low) of 144.2 meq/L, a PL (80 mg/kg, 24 h, dose level Low) of 146.4 mg/dL and an RALB (80 mg/kg, 24 h, dose level Low) of 2.6 g/dL. It also gave a TBIL (80 mg/kg, 24 h, dose level Low) of 0.032 mg/dL.
